# According to US20250109127A1, “METHODS OF USE OF PHENOXYPROPYLAMINE COMPOUNDS TO TREAT DEPRESSION” (Minerva Neurosciences, Inc., priority 2013, published 2025):
# Where “and” joins values, the source holds several entries; their conditions need not be identical. Identical values can stand only once. Counter-ions that a name gives are not always drawn.
# System: dopamine release in the rat prefrontal cortex
# Test: Microdialysis: dopamine release in prefrontal cortex after I.P. administration
# Type: in vivo
# Settings: for DOPAMINE (% of respective basal), individual animal: 0.1 mg/kg I.P., c2-c9 = R#13,14,20,19,25,26,31,32; for DOPAMINE (% of respective basal), individual animal / Dopamine release, individual animals: hydrochloride; for Dopamine release, MEAN / Dopamine release, individual animals: 0.3 mg/kg I.P.; for Dopamine release, MEAN: n = 8; for Dopamine release, individual animals: one column per animal R#11,12,18,23,29,30,17,24
# Description: The aim of the study was to evaluate, using microdialysis, the effects of an intraperitoneal (I.P.) administration in rats of three different doses of SON-117 on dopamine and its metabolites, serotonin and its metabolite (5-HIAA), and norepinephrine levels in prefrontal cortex.
# Thirty-two adult male Wistar rats were used for the whole study (4 groups of eight animals planned for the study, Table 1).
# Surgery was performed on rats weighing about 300 g at the beginning of the experiments. Rats were anaesthetized with Ketamine (50 mg/kg) & Xylazine (15 mg/kg) by intramuscular administration. The animals were placed in a stereotaxic apparatus in the flat-skull position at a constant setting of −3.3 mm between ear bars and the incisor bar. The animals were treated with a local anesthesic (xylocaine 1%, Astra Zeneca) and an analgesic (Temgesic, from Schering Plough, 0.05 mg/kg, s.c.). A rostrocaudal midline incision was made with a lancet to expose the dorsal skull surface. The “stereotaxic zero” was defined by the Bregma in accordance with Paxinos and Watson's atlas (1986). A hole was drilled in the skull with a drill and the meninges were pierced with a sterile needle to implant a CMA12 guide cannula which later received the dialysis probe.
# Coordinates used for implanting guide cannula in prefrontal cortex from Bregma were anteroposterior 3.7 mm, mediolateral 0.8 mm, and dorsoventral −2 mm (top of the probe was at −5 mm). The guide cannula was fixed to the skull with two stainless steel screws (1.88 mm outside diameter) anchored. An application of dental cement was added. A plastic collar allowed each animal to be tethered to a Swivel assembly of the CMA 120 awake animal system. Following surgery, rats were kept in individual cages and allowed to recover for a minimum of 3-5 days before the experimentation. The rats were handled and put in plastic bowl for 10 min at least every day to habituate the animals to their new environment for the dialysis. An I.P. administration with saline was also performed every day.
# Dialysis probes (CMA12/3 mm, membrane, 20 kD cut-off, Carnegie Medicine, Stockholm, Sweden), were carefully washed before inserting into the guide cannula. The wash was performed with the artificial cerebrospinal fluid (aCSF) medium (NaCl 147 mM, KCl 2.7 mM, CaCl2 1.2 mM, MgCl2 0.85 mM) at room temperature. The dialysis system was then equilibrated at 20° C. at a perfusion rate of 1 μl/min with a Carnegie pump (CMA100). All catheters (FEP tubing, internal volume of 1.2 μl/10 cm, and tubing adaptors) used for microdialysis were treated in the same conditions.
# The probes duly prepared were inserted into the guide cannula and the CMA120 Swivel assembly secured to the animal using a plastic collar. Flow through the dialysis probe with aCSF was maintained at a rate of 1 μl/min during the whole experimentation. The first four fractions (corresponding to 2 hours) were discarded to avoid the effects of parenchymal disturbance and to ensure that an approximate steady-state level was reached. Fractions were then collected over a period of 8.5 h during which time the animals remained quiet. The dialysates were automatically collected with an autosampler (microfraction collector CMA 140, Carnegie Medicin) and stored at −80° C. until analysis. […] Perfusion was then maintained for 7 hours with aCSF. The dialysates (30 μl) were collected into 300 μl vials, transferred into dry ice and then kept frozen (−80° C.) until analysis. Frozen samples were shipped to a partner for analysis. At the end of the microdialysis study, a PBS with colored ink was perfused through the probe in order to visualize the dialyzed area.
# Catecholamine assay: Concentrations of dopamine, DOPAC, HVA, 5-HIAA, 5-HT, and norepinephrin were determined for each sample by HPLC coupled with electrochemical detection.
structure (smiles),measurement,setting,value
"Cc1nnc(-c2cc3c(OC[C@@H](O)CN4CCC(c5ccc(Cl)c(Cl)c5)CC4)cccc3o2)o1 [SON-117, (S)-1-(4-(3,4-dichlorophenyl)piperidino)-3-(2-(5-methyl-1,3,4-oxadiazol-2-yl)benzo(b)furan-4-yloxy)-2-propanol hydrochloride]","DOPAMINE (% of respective basal), individual animal",T30-T1 h,78.42 % of respective basal and 144.00 % of respective basal and 128.77 % of respective basal and 71.43 % of respective basal and 151.01 % of respective basal and 47.86 % of respective basal and 101.52 % of respective basal
same,"DOPAMINE (% of respective basal), individual animal",T1 h 30-T2 h,36.00 % of respective basal and 142.72 % of respective basal and 334.21 % of respective basal and 140.61 % of respective basal and 189.68 % of respective basal and 109.22 % of respective basal and 110.24 % of respective basal
same,"DOPAMINE (% of respective basal), individual animal",T1 h-T1 h 30,48.68 % of respective basal and 33.57 % of respective basal and 218.55 % of respective basal and 176.05 % of respective basal and 99.52 % of respective basal and 198.57 % of respective basal and 106.01 % of respective basal and 103.54 % of respective basal
same,"DOPAMINE (% of respective basal), individual animal",T2 h 30-T3 h,23.71 % of respective basal and 100.08 % of respective basal and 315.3 % of respective basal and 95.2 % of respective basal and 171.39 % of respective basal and 293.73 % of respective basal and 72.19 % of respective basal and 35.99 % of respective basal
same,"DOPAMINE (% of respective basal), individual animal",T2 h-T2 h 30,84.44 % of respective basal and 172.82 % of respective basal and 179.35 % of respective basal and 87.73 % of respective basal and 1288.95 % of respective basal and 305.56 % of respective basal and 131.13 % of respective basal and 45.72 % of respective basal
same,"DOPAMINE (% of respective basal), individual animal",T3 h 30-T4 h,23.36 % of respective basal and 145.75 % of respective basal and 464.25 % of respective basal and 43.13 % of respective basal and 194.11 % of respective basal and 295.73 % of respective basal and 45.38 % of respective basal and 34.94 % of respective basal
same,"DOPAMINE (% of respective basal), individual animal",T3 h-T3 h 30,40.16 % of respective basal and 117.963 % of respective basal and 93.88 % of respective basal and 47.74 % of respective basal and 225.34 % of respective basal and 586.07 % of respective basal and 48.38 % of respective basal and 40.61 % of respective basal
same,"DOPAMINE (% of respective basal), individual animal",T4 h 30-T5 h,196.31 % of respective basal and 152.43 % of respective basal and 409.91 % of respective basal and 45.90 % of respective basal and 293.48 % of respective basal and 662.65 % of respective basal and 73.568 % of respective basal and 92.51 % of respective basal
same,"DOPAMINE (% of respective basal), individual animal",T4 h-T4 h 30,91.54 % of respective basal and 75.24 % of respective basal and 423.55 % of respective basal and 28.53 % of respective basal and 308.40 % of respective basal and 676.86 % of respective basal and 63.428 % of respective basal and 58.94 % of respective basal
same,"DOPAMINE (% of respective basal), individual animal",T5 h 30-T6 h,107.62 % of respective basal and 109.11 % of respective basal and 218.37 % of respective basal and 42.54 % of respective basal and 135.41 % of respective basal and 709.30 % of respective basal and 42.94 % of respective basal and 140.37 % of respective basal
same,"DOPAMINE (% of respective basal), individual animal",T5 h-T5 h 30,110.75 % of respective basal and 148.81 % of respective basal and 228.76 % of respective basal and 47.98 % of respective basal and 200.12 % of respective basal and 601.17 % of respective basal and 21.81 % of respective basal and 112.11 % of respective basal
same,"DOPAMINE (% of respective basal), individual animal",T6 h 30-T7 h,78.29 % of respective basal and 188.44 % of respective basal and 933.712 % of respective basal and 63.21 % of respective basal and 1205.29 % of respective basal and 126.67 % of respective basal
same,"DOPAMINE (% of respective basal), individual animal",T6 h-T6 h 30,130.81 % of respective basal and 238.5 % of respective basal and 88.84 % of respective basal and 62.29 % of respective basal and 146.28 % of respective basal and 882.60 % of respective basal and 95.56 % of respective basal and 166.52 % of respective basal
same,"Dopamine release, MEAN",T0-T30 min,128.24 % of respective basal
same,"Dopamine release, MEAN",T30-T1 h,131.35 % of respective basal
same,"Dopamine release, individual animals",T30-T1 h,103.18 % of respective basal and 54.05 % of respective basal and 146.65 % of respective basal and 93.66 % of respective basal and 168.96 % of respective basal and 281.64 % of respective basal and 59.20 % of respective basal and 143.48 % of respective basal
same,"Dopamine release, MEAN",T1 h 30-T2 h,90.06 % of respective basal
same,"Dopamine release, individual animals",T1 h 30-T2 h,91.90 % of respective basal and 29.89 % of respective basal and 33.64 % of respective basal and 64.84 % of respective basal and 106.30 % of respective basal and 119.82 % of respective basal and 81.21 % of respective basal and 192.86 % of respective basal
same,"Dopamine release, MEAN",T1 h-T1 h 30,94.40 % of respective basal
same,"Dopamine release, individual animals",T1 h-T1 h 30,50.19 % of respective basal and 44.28 % of respective basal and 51.46 % of respective basal and 70.10 % of respective basal and 123.34 % of respective basal and 256.96 % of respective basal and 56.09 % of respective basal and 102.79 % of respective basal
same,"Dopamine release, MEAN",T2 h 30-T3 h,95.29 % of respective basal
same,"Dopamine release, individual animals",T2 h 30-T3 h,53.62 % of respective basal and 111.85 % of respective basal and 131.64 % of respective basal and 82.81 % of respective basal and 130.53 % of respective basal and 91.04 % of respective basal and 42.56 % of respective basal and 118.24 % of respective basal
same,"Dopamine release, MEAN",T2 h-T2 h 30,112.22 % of respective basal
same,"Dopamine release, individual animals",T2 h-T2 h 30,78.18 % of respective basal and 201.28 % of respective basal and 102.58 % of respective basal and 57.76 % of respective basal and 140.27 % of respective basal and 171.47 % of respective basal and 131.71 % of respective basal and 14.48 % of respective basal
same,"Dopamine release, MEAN",T3 h 30-T4 h,131.87 % of respective basal
same,"Dopamine release, individual animals",T3 h 30-T4 h,348.64 % of respective basal and 164.63 % of respective basal and 39.78 % of respective basal and 87.76 % of respective basal and 122.97 % of respective basal and 30.76 % of respective basal and 128.55 % of respective basal
same,"Dopamine release, MEAN",T3 h-T3 h 30,133.65 % of respective basal
same,"Dopamine release, individual animals",T3 h-T3 h 30,263.92 % of respective basal and 284.14 % of respective basal and 32.71 % of respective basal and 88.53 % of respective basal and 186.05 % of respective basal and 14.29 % of respective basal and 65.93 % of respective basal
same,"Dopamine release, MEAN",T4 h 30-T5 h,99.61 % of respective basal
same,"Dopamine release, individual animals",T4 h 30-T5 h,204.04 % of respective basal and 138.52 % of respective basal and 77.42 % of respective basal and 28.77 % of respective basal and 97.45 % of respective basal and 26.06 % of respective basal and 62.98 % of respective basal and 161.60 % of respective basal
same,"Dopamine release, MEAN",T4 h-T4 h 30,126.41 % of respective basal
same,"Dopamine release, individual animals",T4 h-T4 h 30,99.34 % of respective basal and 210.06 % of respective basal and 195.26 % of respective basal and 40.10 % of respective basal and 119.18 % of respective basal and 52.10 % of respective basal and 159.91 % of respective basal and 135.30 % of respective basal
same,"Dopamine release, MEAN",T5 h 30-T6 h,263.98 % of respective basal
